Results as given in ChEMBL document CHEMBL1144218, “Synthesis and biological activity of anticoccidial agents: 5,6-diarylimidazo[2,1-b][1,3]thiazoles” (Bioorg Med Chem Lett, 2008).
pIC50: −log10 of the molar value. Each block holds one compound with its values, some of them ahead of it.

Columns and labels:
[1] = Inhibition of Eimeria tenella PKG
Eimeria acervulina [2] = test: Anticoccidial activity against Eimeria acervulina infected in poultry bird assessed as reduction of […] burden at 50 ppm, po after 7 days; format: functional; parameters: scale not given: the % may be the effect or the level left
Eimeria mitis [3] = test: Anticoccidial activity against Eimeria mitis infected in poultry bird assessed as reduction of […] burden at 50 ppm, po after 7 days; format: functional; parameters: scale not given: the % may be the effect or the level left
Eimeria tenella [4] = test: Anticoccidial activity against Eimeria tenella infected in poultry bird assessed as reduction of […] burden at 50 ppm, po after 7 days; format: functional; parameters: scale not given: the % may be the effect or the level left
Eimeria maxima [5] = test: Anticoccidial activity against Eimeria maxima infected in poultry bird assessed as reduction of […] burden at 50 ppm, po after 7 days; format: functional; parameters: scale not given: the % may be the effect or the level left
Eimeria acervulina [6] = test: Anticoccidial activity against Eimeria acervulina infected in poultry bird assessed as reduction of […] burden at 12.5 ppm, po after 7 days; format: functional; parameters: scale not given: the % may be the effect or the level left
Eimeria tenella [7] = test: Anticoccidial activity against Eimeria tenella infected in poultry bird assessed as reduction of […] burden at 6.25 ppm, po after 7 days; format: functional; parameters: scale not given: the % may be the effect or the level left
Eimeria tenella [8] = test: Anticoccidial activity against Eimeria tenella infected in poultry bird assessed as reduction of […] burden at 25 ppm, po after 7 days; format: functional; parameters: scale not given: the % may be the effect or the level left
Eimeria maxima [9] = test: Anticoccidial activity against Eimeria maxima infected in poultry bird assessed as reduction of […] burden at 12.5 ppm, po after 7 days; format: functional; parameters: scale not given: the % may be the effect or the level left
Eimeria tenella [10] = test: Anticoccidial activity against Eimeria tenella infected in poultry bird assessed as reduction of […] burden at 12.5 ppm, po after 7 days; format: functional; parameters: scale not given: the % may be the effect or the level left
Eimeria mitis [11] = test: Anticoccidial activity against Eimeria mitis infected in poultry bird assessed as reduction of […] burden at 12.5 ppm, po after 7 days; format: functional; parameters: scale not given: the % may be the effect or the level left
Eimeria acervulina [12] = test: Anticoccidial activity against Eimeria acervulina infected in poultry bird assessed as reduction of […] burden at 6.25 ppm, po after 7 days; format: functional; parameters: scale not given: the % may be the effect or the level left
Eimeria mitis [13] = test: Anticoccidial activity against Eimeria mitis infected in poultry bird assessed as reduction of […] burden at 25 ppm, po after 7 days; format: functional; parameters: scale not given: the % may be the effect or the level left
Eimeria mitis [14] = test: Anticoccidial activity against Eimeria mitis infected in poultry bird assessed as reduction of […] burden at 6.25 ppm, po after 7 days; format: functional; parameters: scale not given: the % may be the effect or the level left
Eimeria acervulina [15] = test: Anticoccidial activity against Eimeria acervulina infected in poultry bird assessed as reduction of […] burden at 25 ppm, po after 7 days; format: functional; parameters: scale not given: the % may be the effect or the level left
Eimeria maxima [16] = test: Anticoccidial activity against Eimeria maxima infected in poultry bird assessed as reduction of […] burden at 25 ppm, po after 7 days; format: functional; parameters: scale not given: the % may be the effect or the level left
Eimeria maxima [17] = test: Anticoccidial activity against Eimeria maxima infected in poultry bird assessed as reduction of […] burden at 6.25 ppm, po after 7 days; format: functional; parameters: scale not given: the % may be the effect or the level left

- pIC50 [1]: 7.66
Structure (SMILES): CN(C)Cc1cn2c(-c3ccncc3)c(-c3ccc(F)cc3)nc2s1
- Activity (Eimeria acervulina [2]): 50%
- Activity (Eimeria mitis [3]): <50%
- Activity (Eimeria tenella [4]): 80%
- Activity (Eimeria maxima [5]): <50%

- pIC50 [1]: 8.00
Structure (SMILES): CN(C)CCc1cn2c(-c3ccncc3)c(-c3ccc(F)cc3)nc2s1
- Activity (Eimeria acervulina [2]): 50%
- Activity (Eimeria mitis [3]): 99%
- Activity (Eimeria tenella [4]): 50%
- Activity (Eimeria maxima [5]): <50%

- pIC50 [1]: 7.00
Structure (SMILES): CN1CCN(C(=O)c2cn3c(-c4ccncc4)c(-c4ccc(F)cc4)nc3s2)CC1

- pIC50 [1]: < 7.00
Structure (SMILES): Cc1c(CN2CCN(C)CC2)sc2nc(-c3ccc(F)cc3)c(-c3ccncc3)n12

- pIC50 [1]: 9.05
Structure (SMILES): CN(C)Cc1cn2c(-c3ccnc(N)n3)c(-c3ccc(F)cc3)nc2s1
- Activity (Eimeria acervulina [2]): 100%
- Activity (Eimeria mitis [3]): 50%
- Activity (Eimeria tenella [4]): 99%
- Activity (Eimeria maxima [5]): <50%

- pIC50 [1]: 8.60
Structure (SMILES): CN1CCN(CCc2cn3c(-c4ccncc4)c(-c4ccc(F)cc4)nc3s2)CC1
- Activity (Eimeria acervulina [2]): 80%
- Activity (Eimeria mitis [3]): <50%
- Activity (Eimeria tenella [4]): 99%
- Activity (Eimeria maxima [5]): 50%

- pIC50 [1]: 8.98
Structure (SMILES): CN1CCN(Cc2cn3c(-c4ccncn4)c(-c4ccc(F)cc4)nc3s2)CC1
- Activity (Eimeria acervulina [2]): 99%
- Activity (Eimeria mitis [3]): 100%
- Activity (Eimeria tenella [4]): 100%
- Activity (Eimeria maxima [5]): 100%

- pIC50 [1]: 10.10
Structure (SMILES): CN1CCN(Cc2cn3c(-c4ccnc(N)n4)c(-c4ccc(F)cc4)nc3s2)CC1
- Activity (Eimeria acervulina [6]): 100%
- Activity (Eimeria tenella [7]): 100%
- Activity (Eimeria acervulina [2]): 100%
- Activity (Eimeria tenella [8]): 100%
- Activity (Eimeria maxima [9]): 100%
- Activity (Eimeria tenella [10]): 100%
- Activity (Eimeria mitis [3]): 100%
- Activity (Eimeria mitis [11]): <50%
- Activity (Eimeria acervulina [12]): 100%
- Activity (Eimeria mitis [13]): 100%
- Activity (Eimeria tenella [4]): 100%
- Activity (Eimeria mitis [14]): <50%
- Activity (Eimeria acervulina [15]): 100%
- Activity (Eimeria maxima [16]): 100%
- Activity (Eimeria maxima [17]): 100%
- Activity (Eimeria maxima [5]): 100%

- pIC50 [1]: 9.15
Structure (SMILES): CN1CCN(Cc2cn3c(-c4ccncc4)c(-c4ccc(F)cc4)nc3s2)CC1
- Activity (Eimeria acervulina [2]): 100%
- Activity (Eimeria mitis [3]): 80%
- Activity (Eimeria tenella [4]): 99%
- Activity (Eimeria maxima [5]): <50%
